Measurements from patent US8735414B2 (priority 2009, dated 2014).

Tests used:
[1] = tested on: bicistronic HCV replicon (replicon RNA, GenBank Accession No. AJ242654); experiment: HCV Replicon Assay; format: cell-based; conditions: Hepatitis C virus, 72 h, read-out: Replicon IC50

SMILES | IC50 [1] [nM] | melting point [°C]
CCc1cc2c(cc1F)c(C#N)c(-c1ccc(S(=O)(=O)N[C@@H](C)C(F)(F)F)cn1)n2-c1cnccn1 [compound 929, 6-[3-cyano-6-ethyl-5-fluoro-1-(pyrazin-2-yl)-1H-indol-2-yl]-N-[(2S)-1,1,1-trifluoropropan-2-yl]pyridine-3-sulfonamide] | < 500 | 225 to 229
C[C@H](NS(=O)(=O)c1ccc(-c2c(C#N)c3cc(F)c(C4CC4)cc3n2C2CCCC2)nc1)C(F)(F)F [compound 661, 6-(3-cyano-1-cyclopentyl-6-cyclopropyl-5-fluoro-1H-indol-2-yl)-N-[(2S)-1,1,1-trifluoropropan-2-yl]pyridine-3-sulfonamide] | < 500 | 189 to 190
Cc1ccc2c(C#N)c(-c3ccc(S(=O)(=O)NC4(C(F)(F)F)CCC4)cn3)n(C3CCC3)c2c1 [compound 587, 6-(3-cyano-1-cyclobutyl-6-methyl-1H-indol-2-yl)-N-[1-(trifluoromethyl)cyclobutyl]pyridine-3-sulfonamide] | < 500 | 228 to 232
CC(C)NS(=O)(=O)c1cnc(-c2c(C#N)c3ccc(C4CC4)cc3n2C2CCCC2)nc1 [compound 125, 2-(3-cyano-1-cyclopentyl-6-cyclopropyl-1H-indol-2-yl)-N-(propan-2-yl)pyrimidine-5-sulfonamide] | < 500 | 211 to 212
Cc1cc2c(cc1O)c(C#N)c(-c1ccc(S(=O)(=O)N[C@@H](C)C(F)(F)F)cn1)n2C1CCC1 [compound 796, 6-(3-cyano-1-cyclobutyl-5-hydroxy-6-methyl-1H-indol-2-yl)-N-[(2S)-1,1,1-trifluoropropan-2-yl]pyridine-3-sulfonamide] | < 500 | 193 to 195
CCc1cc2c(cc1F)c(C#N)c(-c1ccc(S(=O)(=O)N[C@@H](C)C(F)(F)F)cn1)n2-c1cncnc1 [compound 963, 6-[3-cyano-6-ethyl-5-fluoro-1-(pyrimidin-5-yl)-1H-indol-2-yl]-N-[(2S)-1,1,1-trifluoropropan-2-yl]pyridine-3-sulfonamide] | < 500 | 250 to 257
N#Cc1c(-c2ccc(S(=O)(=O)NC(CF)CF)cn2)n(C2CCCC2)c2ccc(OC(F)(F)F)cc12 [compound 34, 6-[3-cyano-1-cyclopentyl-5-(trifluoromethoxy)-1H-indol-2-yl]-N-(1,3-difluoropropan-2-yl)pyridine-3-sulfonamide] | < 500 | 159 to 160
Cc1cc2c(cc1F)c(C(N)=O)c(-c1ccc(S(=O)(=O)NC(C)(C)C)cn1)n2-c1ccccc1 [compound 1116, 2-[5-(tert-butylsulfamoyl)pyridin-2-yl]-5-fluoro-6-methyl-1-phenyl-1H-indole-3-carboxamide] | < 500 | 241.2 to 242.5
Cc1cc2c(cc1Cl)c(C#N)c(-c1ncc(S(=O)(=O)N[C@@H](C)C(F)(F)F)cn1)n2C1CCC1 [compound 448, 2-(5-chloro-3-cyano-1-cyclobutyl-6-methyl-1H-indol-2-yl)-N-[(2S)-1,1,1-trifluoropropan-2-yl]pyrimidine-5-sulfonamide] | 500 to 2000 | > 300
C[C@H](NS(=O)(=O)c1ccc(-c2c(C#N)c3ccc(OC(F)(F)F)cc3n2C2CCCCC2)nc1)C1CC1 [compound 305, 6-[3-cyano-1-cyclohexyl-6-(trifluoromethoxy)-1H-indol-2-yl]-N-[(1S)-1-cyclopropylethyl]pyridine-3-sulfonamide] | < 500 | 195 to 197
C[C@H](NS(=O)(=O)c1ccc(-c2c(C#N)c3ccc(OC(F)(F)F)cc3n2C2CCC2)nc1)C(F)(F)F [compound 370, 6-[3-cyano-1-cyclobutyl-6-(trifluoromethoxy)-1H-indol-2-yl]-N-[(2S)-1,1,1-trifluoropropan-2-yl]pyridine-3-sulfonamide] | < 500 | 165 to 175
C[C@@H](NS(=O)(=O)c1ccc(-c2c(C#N)c3ccc(C(F)F)cc3n2C2CCC2)nc1)C(F)(F)F [compound 334, 6-[3-cyano-1-cyclobutyl-6-(difluoromethyl)-1H-indol-2-yl]-N-[(2R)-1,1,1-trifluoropropan-2-yl]pyridine-3-sulfonamide] | < 500 | 200 to 206
CCc1cc2c(cc1F)c(C#N)c(-c1cc(C)c(S(=O)(=O)N[C@H](C)C(F)(F)F)cn1)n2-c1ccccn1 [compound 891, 6-[3-cyano-6-ethyl-5-fluoro-1-(pyridin-2-yl)-1H-indol-2-yl]-4-methyl-N-[(2R)-1,1,1-trifluoropropan-2-yl]pyridine-3-sulfonamide] | < 500 | 178 to 183
C[C@@H](NS(=O)(=O)c1ccc(-c2c(C(N)=O)c3cc(F)c(C4CC4)cc3n2C2CCCC2)nc1)C(F)(F)F [compound 829, 1-cyclopentyl-6-cyclopropyl-5-fluoro-2-(5-{[(2R)-1,1,1-trifluoropropan-2-yl]sulfamoyl}pyridin-2-yl)-1H-indole-3-carboxamide] | < 500 | 233 to 234
Cc1cc2c(cc1Cl)c(C#N)c(-c1ccc(S(=O)(=O)N[C@@H](C)C(F)(F)F)cn1)n2-c1ccccn1 [compound 803, 6-[5-chloro-3-cyano-6-methyl-1-(pyridin-2-yl)-1H-indol-2-yl]-N-[(2S)-1,1,1-trifluoropropan-2-yl]pyridine-3-sulfonamide] | < 500 | 210 to 212
COc1cc2c(C(N)=O)c(-c3ccc(S(=O)(=O)N[C@H](C)C(F)(F)F)cn3)n(C3CCCC3)c2cc1C [compound 834, 1-cyclopentyl-5-methoxy-6-methyl-2-(5-{[(2R)-1,1,1-trifluoropropan-2-yl]sulfamoyl}pyridin-2-yl)-1H-indole-3-carboxamide] | 2000 to 5000 | 273 to 275
Cc1cc2c(cc1F)c(C(N)=O)c(-c1ccc(S(=O)(=O)N[C@H](C)C(F)(F)F)cn1)n2C1CCC1 [compound 732, 1-cyclobutyl-5-fluoro-6-methyl-2-(5-{[(2R)-1,1,1-trifluoropropan-2-yl]sulfamoyl}pyridin-2-yl)-1H-indole-3-carboxamide] | < 500 | 195 to 197
Cc1cccc(-n2c(-c3ccc(S(=O)(=O)N[C@@H](C)C(F)(F)F)cn3)c(C#N)c3cc(F)c(C)cc32)n1 [compound 923, 6-[3-cyano-5-fluoro-6-methyl-1-(6-methylpyridin-2-yl)-1H-indol-2-yl]-N-[(2S)-1,1,1-trifluoropropan-2-yl]pyridine-3-sulfonamide] | < 500 | 219 to 225
CCc1cc2c(cc1F)c(C#N)c(-c1ccc(S(=O)(=O)N[C@@H](C)C(F)(F)F)cn1)n2-c1ccc(C(F)(F)F)cc1 [compound 1006, 6-{3-cyano-6-ethyl-5-fluoro-1-[4-(trifluoromethyl)phenyl]-1H-indol-2-yl}-N-[(2S)-1,1,1-trifluoropropan-2-yl]pyridine-3-sulfonamide] | 500 to 2000 | 276 to 282
CCc1cc2c(cc1F)c(C#N)c(-c1ccc(S(=O)(=O)N[C@@H](C)C(F)(F)F)cn1)n2-c1ccc(OC)cc1 [compound 1005, 6-[3-cyano-6-ethyl-5-fluoro-1-(4-methoxyphenyl)-1H-indol-2-yl]-N-[(2S)-1,1,1-trifluoropropan-2-yl]pyridine-3-sulfonamide] | < 500 | 261 to 266
C[C@H](NS(=O)(=O)c1ccc(-c2c(C#N)c3ccc(C(F)F)cc3n2C2CCC2)nc1)C(F)(F)F [compound 363, 6-[3-cyano-1-cyclobutyl-6-(difluoromethyl)-1H-indol-2-yl]-N-[(2S)-1,1,1-trifluoropropan-2-yl]pyridine-3-sulfonamide] | < 500 | 198 to 207
CCc1cc2c(cc1F)c(C#N)c(-c1ccc(S(=O)(=O)NC3(C)CC3)cn1)n2-c1ncccn1 [compound 860, 6-[3-cyano-6-ethyl-5-fluoro-1-(pyrimidin-2-yl)-1H-indol-2-yl]-N-(1-methylcyclopropyl)pyridine-3-sulfonamide] | < 500 | 169 to 179
Cc1ccc2c(c1)c(C#N)c(-c1ncc(S(=O)(=O)N[C@@H](C)C3CC3)cn1)n2C1CCC1 [compound 545, 2-(3-cyano-1-cyclobutyl-5-methyl-1H-indol-2-yl)-N-[(1S)-1-cyclopropylethyl]pyrimidine-5-sulfonamide] | < 500 | 168 to 171
N#Cc1c(-c2ncc(S(=O)(=O)NC(CF)CF)cn2)n(C2CCCC2)c2cc(C3CC3)ccc12 [compound 173, 2-(3-cyano-1-cyclopentyl-6-cyclopropyl-1H-indol-2-yl)-N-(1,3-difluoropropan-2-yl)pyrimidine-5-sulfonamide] | < 500 | 215 to 219
Cc1ccc2c(C#N)c(-c3ccc(S(=O)(=O)NC(C)(C)C(F)(F)F)cn3)n(C3CCC3)c2c1F [compound 578, 6-(3-cyano-1-cyclobutyl-7-fluoro-6-methyl-1H-indol-2-yl)-N-(1,1,1-trifluoro-2-methylpropan-2-yl)pyridine-3-sulfonamide] | < 500 | 168 to 175
N#Cc1c(-c2ccc(S(=O)(=O)NC(CF)CF)cn2)n(C2CCC2)c2cc(C(F)F)ccc12 [compound 331, 6-[3-cyano-1-cyclobutyl-6-(difluoromethyl)-1H-indol-2-yl]-N-(1,3-difluoropropan-2-yl)pyridine-3-sulfonamide] | < 500 | 217 to 222
CCn1c(-c2ccc(N(CC(F)F)S(=O)(=O)C3CC3)nc2)c(C#N)c2ccc(OC(C)C)cc21 [compound 292, N-{5-[3-cyano-1-ethyl-6-(propan-2-yloxy)-1H-indol-2-yl]pyridin-2-yl}-N-(2,2-difluoroethyl)cyclopropanesulfonamide] | 500 to 2000 | 232 to 235
